Results on twelve molecules are retold here after patent US10214681B2, “Method for treating a subterranean formation” (Schlumberger Technology Corporation, priority 2015, dated 2019).

What all share (type): biochemical
In assay [1] the test system is cellulase. Description: Viscosity of guar fluid with cellulase and deactivator at 22° C. (Examples 3-7). As to conditions: 200 ppm cellulase; for degradation of the guar: 22° C. (FIG. 4). How it is done: (§1) The following example formulations were prepared by adding a desired amount of cellulase and then a deactivator to water. The polymer was hydrated in the mixed water with a Waring blender mixing at 1000-3000 rpm for 15 mins.
The viscosities of Formulations 1-6 were measured immediately after mixing. To measure the viscosity of the solutions, 12 mL samples were loaded into a rheometer cup in a Bohlin rheometer with a C25 configuration.
The viscosities of Formulations 1-4 were measured immediately after mixing. To measure the viscosity of the solutions, 12 mL samples were loaded into a rheometer cup in a Bohlin rheometer with a C25 configuration.
The viscosities of Formulations 1-5 were measured immediately after mixing. To measure the viscosity of the solutions, 12 mL samples were loaded into a rheometer cup in a Bohlin rheometer with a C25 configuration.

The test system of assay [2] is bacterial and/or fungal cells. Description: Viscosity of guar in water containing 11,000,000 CFU bacterial and/or fungal cells (Example 2). To be noted: 0.4 g/L deactivator, 3.6 g/L guar. How it is done:
Formulation 2 was prepared by adding 3.6 g/L guar to water containing 11,000,000 CFU bacterial and/or fungal cells.
Formulation 3 was prepared by adding 0.4 g/L of tannic acid to Formulation 2.
(§2) The viscosities of Formulations 1-3 were measured immediately after mixing. To measure the viscosity of the solutions, 12 mL samples were loaded into a rheometer cup in a Bohlin rheometer with a C25 configuration.

In assay [3] the test system is cellulase. In words: Viscosity of guar solution with cellulase and deactivator over time at 50° C. and 80° C. (Example 1). As to conditions: 200 ppm cellulase, 3.6 g/L guar. As for the experimental part: as §1
Formulation 3 was prepared by adding 200 ppm cellulase and 0.6 g/L of 1,5-dihydroxynaphthalene from Sigma Aldrich to tap water. Then 3.6 g/L guar was added to the fluid.
Formulation 4 was prepared by adding 200 ppm cellulase and 0.24 g/L of 1,5-dihydroxynaphthalene from Sigma Aldrich to tap water. Then 3.6 g/L guar was added to the fluid.
To measure the viscosity of the solutions, 12 mL samples were loaded into a rheometer cup in a Bohlin rheometer with a C25 configuration. The rheology tests were performed at a shear rate of 10 s^−1 and temperatures of 50° C. and 80° C., the results of which are shown in FIG. 1 and FIG. 2, respectively.

In assay [4] the test system is cellulase. Description: Viscosity of xanthan fluid with cellulase and deactivator at 22° C. (Example 8). As to conditions: 0.6 g/L deactivator, 200 ppm cellulase, 3.6 g/L xanthan. How it is done: as §1
Formulation 3 was prepared by adding 200 ppm cellulase, 0.6 g/L of 1,5-dihydroxynaphthalene, and 3.6 g/L xanthan to tap water.
as §2

In assay [5] the test system is cellulase. In words: Viscosity of carboxymethyl cellulose fluid with cellulase and deactivator at 22° C. (Example 9). To be noted: 0.6 g/L deactivator, 200 ppm cellulase, 3.6 g/L carboxymethyl cellulose. How it is done: as §1
Formulation 3 was prepared by adding 200 ppm cellulase, 0.6 g/L of 1,5-dihydroxynaphthalene, and 3.6 g/L carboxymethyl cellulose to tap water.
as §2

Regarding `O=C(O)c1cc(O)c(O)c(O)c1` [gallic acid], the “degradation of the guar” value in the assay with cellulase [1] (8 mL/L gallic acid, 3.6 g/L guar) is reported as “impeded”. Besides, the “viscosity compared with Formulation 1 (no cellulase)” value in the assay on cellulase [1] (8 mL/L gallic acid, 3.6 g/L guar, shear rate 1, 10, 100 s^-1, 22° C. (FIG. 4)) was “similar”.

On to `COc1cc(OC)cc(OC)c1` [1,3,5-trimethoxybenzene], for which the “degradation of the biomaterial” value in the assay on cellulase [1] (0.6 g/L 1,3,5-trimethoxybenzene, 3.6 g/L guar, 22° C. (FIG. 8)) is on record as “impeded”. Further, in the assay on cellulase [1] (0.6 g/L 1,3,5-trimethoxybenzene, 3.6 g/L guar, shear rate 1, 10, 100 s^-1, 22° C. (FIG. 8)), the “viscosity compared with Formulation 1 (no cellulase)” value was “similar”.

`Oc1cccc2cccc(O)c12` [1,8-dihydroxynaphthalene]: in the assay with cellulase [1] (0.12 g/L deactivator, 3.6 g/L guar, 22° C. (FIG. 6)), the “degradation of the biomaterial” value is “impeded”. The “viscosity compared with Formulation 1 (no cellulase)” value in the assay on cellulase [1] (0.12 g/L deactivator, 3.6 g/L guar, shear rate 1, 10, 100 s^-1, 22° C. (FIG. 6)) is recorded as “similar”.

Take `O=C(OC[C@H]1O[C@@H](OC(=O)c2cc(O)c(O)c(OC(=O)c3cc(O)c(O)c(O)c3)c2)[C@H](OC(=O)c2cc(O)c(O)c(OC(=O)c3cc(O)c(O)c(O)c3)c2)[C@@H](OC(=O)c2cc(O)c(O)c(OC(=O)c3cc(O)c(O)c(O)c3)c2)[C@@H]1OC(=O)c1cc(O)c(O)c(OC(=O)c2cc(O)c(O)c(O)c2)c1)c1cc(O)c(O)c(OC(=O)c2cc(O)c(O)c(O)c2)c1` [tannic acid]: in the assay with cellulase [1] (0.4 g/L deactivator, 3.6 g/L guar, 22° C. (FIG. 5)), the “degradation of the biomaterial by the cellulase enzymes” value is listed as “impeded”. In addition, in the assay with cellulase [1] (0.4 g/L deactivator, 3.6 g/L guar, shear rate 1, 10, 100 s^-1, 22° C. (FIG. 5)), the “viscosity compared with Formulation 1 (no cellulase)” value is on record as “similar”. The “degradation of the guar biomaterial by the enzyme” value in assay [2] (water with 11,000,000 CFU bacterial and/or fungal cells, 22° C. (FIG. 3)) is given as “inhibited”. Further, the “viscosity compared with Formulation 1 (guar in tap water)” value in assay [2] (water with 11,000,000 CFU cells, shear rate 1, 10, 100 s^-1, 22° C. (FIG. 3)) is given as “similar”.

For `COc1cccc(OC)c1OC` [1,2,3-trimethoxybenzene], the “degradation of the biomaterial” value with cellulase [1] (0.6 g/L 1,2,3-trimethoxybenzene, 3.6 g/L guar, 22° C. (FIG. 8)) is “impeded”. The “viscosity compared with Formulation 1 (no cellulase)” value in the assay on cellulase [1] (0.6 g/L 1,2,3-trimethoxybenzene, 3.6 g/L guar, shear rate 1, 10, 100 s^-1, 22° C. (FIG. 8)) was “similar”.

`O=C(O)c1ccccc1O` [salicylic acid]: the “degradation of the guar” value in the assay on cellulase [1] (8 mL/L salicylic acid, 3.6 g/L guar) is “impeded”. For the same molecule, in the assay on cellulase [1] (8 mL/L salicylic acid, 3.6 g/L guar, shear rate 1, 10, 100 s^-1, 22° C. (FIG. 4)), the “viscosity compared with Formulation 1 (no cellulase)” value is on record as “similar”.

Regarding `Oc1cc2ccccc2cc1O` [2,3-dihydroxynaphthalene], the “degradation of the biomaterial” value in the assay with cellulase [1] (0.36 g/L deactivator, 3.6 g/L guar, 22° C. (FIG. 6)) is “impeded”. Also, in the assay on cellulase [1] (0.36 g/L deactivator, 3.6 g/L guar, shear rate 1, 10, 100 s^-1, 22° C. (FIG. 6)), the “viscosity compared with Formulation 1 (no cellulase)” value is on record as “similar”.

As for `Oc1cccc2c(O)cccc12` [1,5-dihydroxynaphthalene], in the assay on cellulase [3] (0.6 g/L deactivator, tap water, shear rate 10 s^-1, 50° C. and 80° C. (FIG. 1, 2)), the “degradation rate of the cellulase enzymes” value is given as “reduced”. Moreover, the “dependence of viscosity reduction on deactivator concentration” value in the assay on cellulase [3] (0.6 g/L vs 0.24 g/L deactivator, 50° C. (FIG. 1)) was “the slower the viscosity was reduced”. Also, the “viscosity compared with the formulation without deactivator” value is recorded as “higher” with cellulase [3] (50° C., shear rate 10 s^-1 (FIG. 1)) and “higher” in the assay with cellulase [3] (80° C., shear rate 10 s^-1 (FIG. 2)). Besides, the “degradation of the biomaterial” value with cellulase [4] (22° C. (FIG. 9)) is reported as “impeded”; with cellulase [5] (22° C. (FIG. 10)), “impeded”; with cellulase [1] (0.6 g/L deactivator, 3.6 g/L guar, 22° C. (FIG. 6)), “impeded”. Further, the “viscosity compared with Formulation 1 (no cellulase)” value in the assay with cellulase [4] (shear rate 1, 10, 100 s^-1, 22° C. (FIG. 9)) is recorded as “similar”; in the assay with cellulase [5] (shear rate 1, 10, 100 s^-1, 22° C. (FIG. 10)), “similar”; in the assay with cellulase [1] (0.6 g/L deactivator, 3.6 g/L guar, shear rate 1, 10, 100 s^-1, 22° C. (FIG. 6)) it was “similar”.

With `Nc1cccc2c(O)cccc12` [5-amino-1-naphthol], the “degradation of the biomaterial” value with cellulase [1] (0.96 g/L deactivator, 3.6 g/L guar, 22° C. (FIG. 7)) is reported as “impeded”. The “viscosity compared with Formulation 1 (no cellulase)” value with cellulase [1] (0.96 g/L deactivator, 3.6 g/L guar, shear rate 1, 10, 100 s^-1, 22° C. (FIG. 7)) is given as “similar”.

For the molecule `COc1ccccc1O` [guaiacol], the “degradation of the guar” value in the assay with cellulase [1] (8 mL/L deactivator, 6 g/L guar) is on record as “impeded”. The “viscosity compared with Formulation 1 (no cellulase)” value in the assay on cellulase [1] (8 mL/L deactivator, 6 g/L guar, shear rate 1, 10, 100 s^-1, 22° C. (FIG. 4)) was “similar”.

For `Oc1ccc2c(c1)OCO2` [sesamol], the “degradation of the biomaterial” value in the assay on cellulase [1] (0.36 g/L deactivator, 3.6 g/L guar, 22° C. (FIG. 7)) is “impeded”. For the same molecule, the “viscosity compared with Formulation 1 (no cellulase)” value in the assay on cellulase [1] (0.36 g/L deactivator, 3.6 g/L guar, shear rate 1, 10, 100 s^-1, 22° C. (FIG. 7)) was “similar”.

As to `COc1cc(C(=O)O)ccc1O` [vanillic acid], in the assay on cellulase [1] (0.96 g/L deactivator, 3.6 g/L guar), the “degradation of the guar” value is reported as “impeded”. The “viscosity compared with Formulation 1 (no cellulase)” value in the assay with cellulase [1] (0.96 g/L deactivator, 3.6 g/L guar, shear rate 1, 10, 100 s^-1, 22° C. (FIG. 4)) was “similar”.
